Source: US20230293630A1, “Coronavirus T Cell Epitopes and Uses Thereof” (priority 2020, published 2023)
Where two headings read alike, the source gives them in different places.

Test system: SARS-CoV-2-specific CD4+ T cells (OX40+CD137+) in PBMC
Type: cell-based, human
[1] = CD4+ T cell epitopes identified by AIM assay, share of donors responding
[2] = CD4+ T cell epitopes identified by AIM assay, sum of response per responding donor
[3] = CD4+ T cell epitopes identified by AIM assay, total response
[4] = CD4+ T cell epitopes identified by AIM assay, percent of tested donors responding
[5] = CD4+ T cell epitopes identified by AIM assay, total response summed over donors

Sequence	Frequency of response (%) [1] [%]	Magnitude by # of responding donors [2]	Sum of response [3]	Frequency of response (%)	Magnitude by # of responding donors	Sum of response	Frequency of response (%) [4] [%]	Sum of response [5]
AAEASKKPRQKRTAT	23	179	537	–	–	–	–	–
ADAVIKTLQPVSELL	8	436	436	–	–	–	–	–
AENSVAYSNNSIAIP	17	403	805	–	–	–	–	–
AGFIKQYGDCLGDIA	25	817	2450	–	–	–	–	–
AGNGGDAALALLLLD	–	–	–	21	416	1249	–	–
AIAMACLVGLMWLSY	8	151	151	–	–	–	–	–
AIKLDDKDPNFKDQV	8	585	585	–	–	–	–	–
ALLAVFQSASKIITL [SEQ ID NO 249]	9	178	178	–	–	–	–	–
APHGVVFLHVTYVPA	–	293	–	–	–	–	7	293
AQYTSALLAGTITSG	–	336	–	–	–	–	9	336
ARDLICAQKFNGLTV	8	232	232	–	–	–	–	–
ARKSAPLIELCVDEA	18	329	658	–	–	–	–	–
ASAFFGMSRIGMEVT	8	337	337	–	–	–	–	–
ASRELKVTFFPDLNG	15	162	324	–	–	–	–	–
AVITREVGFVVPGLP	9	682	682	–	–	–	–	–
AVMSLKEGQINDMIL	33	104	104	–	–	–	–	–
AVTANVNALLSTDGN	7	201	201	–	–	–	–	–
AYSNNSIAIPTNFTI	–	112	–	–	–	–	8	112
CAQKFNGLTVLPPLL	–	741	–	–	–	–	9	741
CCHLAKALNDFSNSG	8	111	111	–	–	–	–	–
CEFQFCNDPFLGVYY	–	359	–	–	–	–	27	1077
CLVGLMWLSYFIASF	–	–	–	33	295	1181	–	–
CNLLLLFVTVYSHLL	18	212	424	–	–	–	–	–
CPFGEVFNATRFASV	–	108	–	–	–	–	9	108
CTFEYVSQPFLMDLE	–	619	–	–	–	–	64	4332
CVADYSVLYNSASFS	8	210	210	–	–	–	–	–

Sequence	Frequency of response (%) [1] [%]	Magnitude by # of responding donors [2]	Sum of response [3]	Frequency of response (%)	Magnitude by # of responding donors	Sum of response	Frequency of response (%) [4] [%]	Sum of response [5]
CVDEAGSKSPIQYID	9	327	327	–	–	–	–	–
DAALALLLLDRLNQL [SEQ ID NO 246]	21	488	1463	–	–	–	–	–
DDQIGYYRRATRRIR [SEQ ID NO 245]	23	268	803	–	–	–	–	–
DFLEYHDVRVVLDFI	18	341	681	–	–	–	–	–
DSKTQSLLIVNNATN	9	108	108	–	–	–	–	–
DVFHLYLQYIRKLHD	7	247	247	–	–	–	–	–
EDFLEYHDVRVVLDF	18	571	1141	–	–	–	–	–
EELKKLLEQWNLVIG	13	223	446	–	–	–	–	–
EFVFKNIDGYFKIYS	18	336	672	–	–	–	–	–
EGALNTPKDHIGTRN	14	185	369	–	–	–	–	–
EHVTFFIYNKIVDEP	14	139	277	–	–	–	–	–
EIYQAGSTPCNGVEG	8	1121	1121	–	–	–	–	–
EKSNIIRGWIFGTTL	9	299	299	–	–	–	–	–
ELDKYFKNHTSPDVD	–	361	–	–	–	–	7	361
ELHLSWEVGKPRPPL	8	103	103	–	–	–	–	–
ESDDYIATNGPLKVG	8	133	133	–	–	–	–	–
FGDQELIRQGTDYKH	8	281	281	–	–	–	–	–
FGLVAEWFLAYILFT	8	219	219	–	–	–	–	–
FGTTLDSKTQSLLIV	9	174	174	–	–	–	–	–
FHQECSLQSCTQHQP	18	413	826	–	–	–	–	–
FIASFRLFARTRSMW	8	353	353	–	–	–	–	–
FIYNKIVDEPEEHVQ	14	243	486	–	–	–	–	–
FKDQVILLNKHIDAY	33	446	1785	–	–	–	–	–
FKIYSKHTPINLVRD	18	484	967	–	–	–	–	–
FLCWHTNCYDYCIPY	7	209	209	–	–	–	–	–
FLGIITTVAAFHQEC [SEQ ID NO 254]	–	185	–	–	–	–	9	185

Sequence	Frequency of response (%) [1] [%]	Magnitude by # of responding donors [2]	Sum of response [3]	Frequency of response (%)	Magnitude by # of responding donors	Sum of response	Frequency of response (%) [4] [%]	Sum of response [5]
FLHFLPRVFSAVGNI	9	491	491	–	–	–	–	–
FNCYFPLQSYGFQPT	8	130	130	–	–	–	–	–
FNICQAVTANVNALL	6	220	220	–	–	–	–	–
FPRGQGVPINTNSSP	8	397	397	–	–	–	–	–
FSNSGSDVLYQPPQT	8	149	149	–	–	–	–	–
FTGYRVTKNSKVQIG	8	116	116	–	–	–	–	–
FTINCQEPKLGSLVV	–	–	–	27	167	502	–	–
FTVEKGIYQTSNFRV	–	1202	–	–	–	–	9	1202
FVSGNCDVVIGIVNN	7	180	180	–	–	–	–	–
FVSLAIDAYPLTKHP	14	115	230	–	–	–	–	–
FYSKWYIRVGARKSA [SEQ ID NO 255]	–	–	–	55	468	2805	–	–
GAVILRGHLRIAGHH	8	512	512	–	–	–	–	–
GGDGKMKDLSPRWYF	15	148	295	–	–	–	–	–
GINASVVNIQKEIDR	–	267	–	–	–	–	8	267
GIVNNTVYDPLQPEL	7	164	164	–	–	–	–	–
GKGQQQQGQTVTKKS	7	318	318	–	–	–	–	–
GKQGNFKNLREFVFK	9	129	129	–	–	–	–	–
GMEVTPSGTWLTYTG	8	380	380	–	–	–	–	–
GSLVVRCSFYEDFLE	27	231	694	–	–	–	–	–
GSSGVVNPVMEPIYD	7	186	186	–	–	–	–	–
GTILTRPLLESELVI	17	161	322	–	–	–	–	–
GVPINTNSSPDDQIG	8	108	108	–	–	–	–	–
GYKKPASRELKVTFF	15	246	491	–	–	–	–	–
HCANFNVLFSTVFPP	7	211	211	–	–	–	–	–
